Laboratory results: US20060111305A1, “Metabolites of certain [1,4]diazepino[6,7,1-ij]quinoline derivatives and methods of preparation and use thereof” (Wyeth, priority 2004, published 2006)
Where “and” joins values, the source holds several entries; their conditions need not be identical. Equal values may be shown once. Read-outs that look alike come from different tables or passages of the source.

Experiments:
[1] = Rat brain radioactivity content and metabolite profiles after single oral 5 mg/kg [14C]DCDQ; assay type: in vivo, Sprague-Dawley rats
Description: At sacrifice, blood samples were collected by cardiac puncture into tubes containing EDTA as the anticoagulant and placing them on ice. Aliquots of 50 μL were removed for combustion and determination of radioactivity content. Plasma was immediately obtained from the remaining blood by centrifugation at 4° C. Brains were excised after perfusion with 50 mL of chilled sterile saline. Urine samples were collected on dry ice at intervals of 0-8 and 8-24 hour post-dosing. Feces were collected at intervals of 0-8 and 8-24 hr post-dosing at room temperature and were homogenized as described previously. The biological specimens and aliquots of the dosing solution at pre- and post-dose were stored at approximately −70° C. until analyzed.
Brain and fecal samples were weighed and homogenized in water at volume-to-weight ratios of about 1:1 and 5:1, respectively. Blood aliquots (50 μL), brain homogenates (0.1 gram) and fecal homogenates (0.2 gram) were placed on Combusto-cones with Combusto-pads and combusted. A model 307 Tri-Carb Sample Oxidizer, equipped with an Oximate-80 Robotic Automatic Sampler (Perkin Elmer), was used for combustion. The liberated ^14CO2 was trapped with Carbo-Sorb E carbon dioxide absorber, mixed with PermaFluor® E+ liquid scintillation cocktail, and counted in a Tri-Carb Model 3100 TR/LL liquid scintillation counter (Perkin Elmer). The oxidation efficiency of the oxidizer was 98.2%.
Brain homogenates were analyzed for metabolite profiles. Aliquots of 1 gram of brain homogenates were mixed with an equal volume of methanol, placed on ice for about 10 minutes and centrifuged. The supernatant was transferred to a clean tube. The residue was extracted three times with 1 mL methanol. The supernatants of each sample were combined, evaporated to about 0.5 mL, and centrifuged. Extraction efficiency was determined by analyzing aliquots of 10 μL of the supernatant for radioactivity. An aliquot (100-200 μL) of the supernatant was analyzed by HPLC with radioactivity flow detection for profiling. Samples were also analyzed by LC/MS to characterize the radioactive peaks.
A Waters model 2690 HPLC system (Waters Corp., Milford, Mass.) with a built-in autosampler was used for analysis. Separations were accomplished on a Phenomenex Luna C18(2) column (150×2.0 mm, 5 μm) (Phenomenex, Torrance, Calif.). The sample chamber of the autosampler was maintained at 4° C., while the column was at ambient temperature of about 20° C. A variable wavelength UV detector set to monitor 250 nm and a Flo-One β Model A525 radioactivity detector described above were used for data acquisition. The HPLC mobile phase consisted of 10 mM ammonium acetate, pH 4.5 (A) and methanol (B), and was delivered at 0.2 mL/min. Chromatographic condition A was used for dose analysis, while condition B was used for analysis of urine and plasma, brain and fecal extracts.

[2] = M6 to DCDQ ratios in human urine, LC/MS (Table 35); assay type: in vivo, healthy human subjects
Description: Drug administration and specimen collection were performed in a randomized, double-blinded, placebo-controlled, ascending single dose study of the safety, tolerability, pharmacokinetics, and pharmacodynamics of DCDQ administered orally to healthy subjects and subjects with schizophrenia and schizoaffective disorder. The specimens were stored at approximately −70° C. until analysis for metabolite profiles and for ratios of carbamoyl glucuronide (M6) to DCDQ.
The 0-4, 4-12 and 12-24 hr urine samples from the same subjects in the single dose groups were analyzed for ratios of M6 to DCDQ. The internal standard was not used in the analysis of urine samples. The samples were diluted for 20-fold with a control urine sample and directly analyzed by LC/MS. To estimate M6-to-DCDQ ratios in human urine, control urine samples were spiked with 200 ng/mL of DCDQ and 1000, 5000, or 10000 ng/mL of DCDQ carbamoyl glucuronide, and were analyzed by LC/MS.
LC/MS System 3 was used for semi-quantitative analysis of metabolite M6 (DCDQ carbamoyl glucuronide) in plasma and urine samples. The HPLC equipment for this LC/MS System consisted of a Thermo Surveyor HPLC (Thermo Electron Corp., San Jose, Calif.), including a Surveyor MS pump and autosampler. Separations were accomplished on a 5 micron Phenomenex Luna C18(2) column, 150×2 mm (Phenomenex, Torrance, Calif.). The autosampler and column temperatures were set at 5° C. and 40° C., respectively. The HPLC mobile phase consisted of 10 mM ammonium acetate (A) and methanol (B), and was delivered at 0.2 mL/min. The linear mobile phase gradient (HPLC Gradient 2) is shown below. During LC/MS sample analysis, up to 3 min of the initial flow was diverted away from the mass spectrometer prior to evaluation of metabolites.
The mass spectrometer used for semi-quantitative anslysis with LC/MS System 3 was a Finnigan TSQ Quantum triple quadrupole mass spectrometer (Thermo Electron Corp.). The mass spectrometer was equipped with an electrospray interface and operated in the positive ionization mode. Settings for this mass spectrometer are listed below.
LC/MS/MS analysis in the selected reaction monitoring (SRM) mode (LC/SRM) was conducted for DCDQ and M6 using the following settings.

c1cc2c3c(c1)[C@H]1CCC[C@H]1CN3CCNC2 [[^14C]DCDQ]
Brain concentration of radioactivity, Total ([1]; female rats, 2 hr, mean ± S.D., N = 3): 6.38 ± 2.22 μg equivalents/g
Brain concentration of radioactivity, Total ([1]; female rats, 8 hr, mean ± S.D., N = 3): 2.85 ± 0.68 μg equivalents/g
Brain concentration of radioactivity, Total ([1]; male rats, 2 hr, mean ± S.D., N = 3): 5.12 ± 1.28 μg equivalents/g
Brain concentration of radioactivity, Total ([1]; male rats, 4 hr, mean ± S.D., N = 3): 4.94 ± 0.44 μg equivalents/g
Brain concentration of radioactivity, Total ([1]; male rats, 8 hr, mean ± S.D., N = 3): 3.25 ± 0.99 μg equivalents/g
Brain radioactivity concentration ([1]; male rats, 24 hour post-dose): 0.037 ± 0.002 µg equivalents/g tissue
Brain concentration of radioactivity, Total ([1]; male rats, 24 hr, mean ± S.D., N = 3): 0.04 ± 0.00 μg equivalents/g

c1cc2c3c(c1)[C@H]1CCC[C@H]1CN3CCNC2 [DCDQ, (9aR,12aS)-4,5,6,7,9,9a,10,11,12,12a-decahydro-cyclopenta[c][1,4]diazepine[6,7,1-ij]quinoline, reference compound]
DCDQ concentration in urine ([2]; 50 mg (fasted), 0-4 hr, Mean ± S.D.): 47.5 ± 58.5 ng/mL
DCDQ concentration in urine ([2]; 50 mg (fasted), 0-4 hr, individual subjects): 115 ng/mL and 13.7 ng/mL (2×)
DCDQ concentration in urine ([2]; 50 mg (fasted), 4-12 hr, Mean ± S.D.): 58.4 ± 58.9 ng/mL
DCDQ concentration in urine ([2]; 50 mg (fasted), 4-12 hr, individual subjects): 31 ng/mL and 18.2 ng/mL and 126 ng/mL
DCDQ concentration in urine ([2]; 50 mg (fasted), 12-24 hr, Mean): 32.7 ± 37.4 ng/mL
DCDQ concentration in urine ([2]; 50 mg (fasted), 12-24 hr, individual subjects): 17.7 ng/mL and 5.21 ng/mL and 75.3 ng/mL
DCDQ concentration in urine ([2]; 200 mg (fasted), 0-4 hr, Mean ± S.D.): 199 ± 124 ng/mL
DCDQ concentration in urine ([2]; 200 mg (fasted), 0-4 hr, individual subjects): 251 ng/mL and 288 ng/mL and 57 ng/mL
DCDQ concentration in urine ([2]; 200 mg (fasted), 4-12 hr, Mean ± S.D.): 118 ± 51.9 ng/mL
DCDQ concentration in urine ([2]; 200 mg (fasted), 4-12 hr, individual subjects): 79.5 ng/mL and 177 ng/mL and 97.3 ng/mL
DCDQ concentration in urine ([2]; 200 mg (fasted), 12-24 hr, Mean ± S.D.): 114 ± 81.5 ng/mL
DCDQ concentration in urine ([2]; 200 mg (fasted), 12-24 hr, individual subjects): 23.1 ng/mL and 181 ng/mL and 137 ng/mL
DCDQ concentration in urine ([2]; 300 mg (fasted), 0-4 hr, Mean ± S.D.): 81.4 ± 82.9 ng/mL
DCDQ concentration in urine ([2]; 300 mg (fasted), 0-4 hr, individual subjects): 9.43 ng/mL and 62.8 ng/mL and 172 ng/mL
DCDQ concentration in urine ([2]; 300 mg (fasted), 4-12 hr, Mean ± S.D.): 62.5 ± 36.8 ng/mL
DCDQ concentration in urine ([2]; 300 mg (fasted), 4-12 hr, individual subjects): 21.7 ng/mL and 93.4 ng/mL and 72.3 ng/mL
DCDQ concentration in urine ([2]; 300 mg (fasted), 12-24 hr, Mean ± S.D.): 128 ± 148 ng/mL
DCDQ concentration in urine ([2]; 300 mg (fasted), 12-24 hr, individual subjects): 22.9 ng/mL and 298 ng/mL and 64.1 ng/mL
DCDQ concentration in urine ([2]; 300 mg (fed), 0-4 hr, Mean ± S.D.): 19.8 ± 31.3 ng/mL
DCDQ concentration in urine ([2]; 300 mg (fed), 0-4 hr, individual subjects): 55.9 ng/mL and 1.56 ng/mL and 1.82 ng/mL
DCDQ concentration in urine ([2]; 300 mg (fed), 4-12 hr, Mean ± S.D.): 155 ± 115 ng/mL
DCDQ concentration in urine ([2]; 300 mg (fed), 4-12 hr, individual subjects): 259 ng/mL and 174 ng/mL and 30.6 ng/mL
DCDQ concentration in urine ([2]; 300 mg (fed), 12-24 hr, Mean ± S.D.): 258 ± 125 ng/mL
DCDQ concentration in urine ([2]; 300 mg (fed), 12-24 hr, individual subjects): 351 ng/mL and 116 ng/mL and 308 ng/mL
DCDQ concentration in urine ([2]; 500 mg (fasted), 0-4 hr, Mean ± S.D.): 914 ± 619 ng/mL
DCDQ concentration in urine ([2]; 500 mg (fasted), 0-4 hr, individual subjects): 1569 ng/mL and 835 ng/mL and 339 ng/mL
DCDQ concentration in urine ([2]; 500 mg (fasted), 4-12 hr, Mean ± S.D.): 1369 ± 658 ng/mL
DCDQ concentration in urine ([2]; 500 mg (fasted), 4-12 hr, individual subjects): 1683 ng/mL and 612 ng/mL and 1811 ng/mL
DCDQ concentration in urine ([2]; 500 mg (fasted), 12-24 hr, Mean ± S.D.): 279 ± 123 ng/mL
DCDQ concentration in urine ([2]; 500 mg (fasted), 12-24 hr, individual subjects): 160 ng/mL and 405 ng/mL and 273 ng/mL
Kp at 2 h ([1]; Sprague-Dawley, rat, brain and plasma, oral, 5 mg/kg, male rats, 2 hr, read-out: Brain/Plasma Ratio, DCDQ): 56.4 ± 11.5
Kp at 4 h ([1]; Sprague-Dawley, rat, brain and plasma, oral, 5 mg/kg, male rats, 4 hr, read-out: Brain/Plasma Ratio, DCDQ): 50.5 ± 8.88
concentration at 2 h ([1]; Sprague-Dawley, rat, brain, oral, 5 mg/kg, female rats, 2 hr, mean ± S.D., N = 3, read-out: Brain concentration, DCDQ (estimated)): 6080 ± 2170 ng/g
concentration at 8 h ([1]; Sprague-Dawley, rat, brain, oral, 5 mg/kg, female rats, 8 hr, mean ± S.D., N = 3, read-out: Brain concentration, DCDQ (estimated)): 2680 ± 660 ng/g
concentration at 2 h ([1]; Sprague-Dawley, rat, brain, oral, 5 mg/kg, male rats, 2 hr, mean ± S.D., N = 3, read-out: Brain concentration, DCDQ (estimated)): 4630 ± 1180 ng/g
concentration at 4 h ([1]; Sprague-Dawley, rat, brain, oral, 5 mg/kg, male rats, 4 hr, mean ± S.D., N = 3, read-out: Brain concentration, DCDQ (estimated)): 4470 ± 420 ng/g
concentration at 8 h ([1]; Sprague-Dawley, rat, brain, oral, 5 mg/kg, male rats, 8 hr, mean ± S.D., N = 3, read-out: Brain concentration, DCDQ (estimated)): 2930 ± 930 ng/g
Kp at 2 h ([1]; Sprague-Dawley, rat, brain/plasma, oral, 5 mg/kg, female rats, 2 hr, read-out: Brain/Plasma Ratio, DCDQ): 49.9 ± 14.3
Kp at 8 h ([1]; Sprague-Dawley, rat, brain/plasma, oral, 5 mg/kg, female rats, 8 hr, read-out: Brain/Plasma Ratio, DCDQ): 56.1 ± 17.8
Kp at 8 h ([1]; Sprague-Dawley, rat, brain/plasma, oral, 5 mg/kg, male rats, 8 hr, read-out: Brain/Plasma Ratio, DCDQ): 50.5 ± 11.4
Kp ([1]; both sexes, Sprague-Dawley, rat, brain, oral, 5 mg/kg, independent of time or sex, 2 to 8 hour post-dose, read-out: average brain-to-plasma DCDQ ratio): 49.9 to 56.1
% DCDQ of Brain Radioactivity ([1]; female rats, 2 hr): 95.2 ± 1.0%
% DCDQ of Brain Radioactivity ([1]; female rats, 8 hr): 94.1 ± 0.7%
% DCDQ of Brain Radioactivity ([1]; male rats, 2 hr): 90.4 ± 0.9%
% DCDQ of Brain Radioactivity ([1]; male rats, 4 hr): 90.4 ± 0.5%
% DCDQ of Brain Radioactivity ([1]; male rats, 8 hr): 90.0 ± 1.2%
